Common to all, as to assay type: cell-based
One assay relates to neocortex. Put plainly: action potential measurements in mouse brain slice, neocortex. Conditions: for amount of current required to trigger an action potential / threshold to trigger an action potential: neocortex. The text has this: (§1) A mouse brain slice was used to study the effects of Menthol, Linalool and Icilin. The amygdaloid complex is located within the medial temporal lobe in neocortex and amygdala. The lateral and basolateral nuclei of the amygdaloid complex receive sensory information from cortical and thalamic structures, process the information, and then transmit the information, either directly or through the basal nucleus, to the central nucleus. For experimental analysis of neural activity, synaptic responses from the basolateral complex can be evoked electrically using electrodes, and the action potentials can be measured.

Assay [1] relates to Lateral Amygdala glutamatergic neuron (in a mouse brain slice). Description: whole cell, current clamp recordings, square pulse of 2.5 s at high depolarization. Conditions: square pulse of 2.5 s at high depolarization of membrane potential (approximately -30 mV); relative to control; FIG. 2.
Description: as §1
A square pulse of 2.5 s was applied at high depolarization of membrane potential (approximately −30 mV).

For assay [2] the test system is unchanged. Description: whole cell, current clamp recordings of spontaneous bursts with increasing concentration of gabazine.
Description: as §1

SMILES strings stand for the structures.

`O=C1NC(c2cccc([N+](=O)[O-])c2)=CCN1c1ccccc1O` [Icilin]: in the assay with neocortex, the “action potentials at higher stimulation levels” value (shortened to “action potentials”) is given as “abort action potentials at higher stimulation levels”, the “amount of current required to trigger an action potential” value (“amount of current required” for short) is reported as “increase the amount of current required to trigger an action potential” and the “threshold to trigger an action potential” value was “increase the threshold to trigger an action potential”. Moreover, in assay [1], the “inactivation of the sodium fast channels / further neural firing” value is recorded as “inactivation of the sodium fast channels happens sooner relative to control”.
As to `C=CC(C)(O)CCC=C(C)C` (centres unmarked) [Linalool], in the assay on neocortex, the “action potentials” value was “abort action potentials at higher stimulation levels”, the “amount of current required” value is recorded as “increase the amount of current required to trigger an action potential” and the “threshold to trigger an action potential” value is “increase the threshold to trigger an action potential”. For the same compound, the “inactivation of the sodium fast channels / further neural firing” value in assay [1] is reported as “inactivation of the sodium fast channels happens sooner relative to control”.
Regarding `CC1CCC(C(C)C)C(O)C1` (centres unmarked) [Menthol], the “spontaneous action potential bursts” value in assay [2] (Menthol 250 μM applied extracellularly 10 minutes previous to and during increasing concentrations of gabazine, FIG. 5 compared to FIG. 3) is on record as “complete absence or a strongly decreased presence of spontaneous bursts”. Moreover, in the assay with neocortex, the “action potentials” value was “abort action potentials at higher stimulation levels”, the “amount of current required” value is listed as “increase the amount of current required to trigger an action potential” and the “threshold to trigger an action potential” value is “increase the threshold to trigger an action potential”. For the same compound, the “inactivation of the sodium fast channels / further neural firing” value in assay [1] is given as “inactivation of the sodium fast channels happens sooner relative to control”.
On to `COc1ccc(-c2ccc(=N)n(CCCC(=O)O)n2)cc1` [gabazine], for which the “spontaneous action potential bursts” value in assay [2] (increasing concentrations of gabazine alone, applied extracellularly, recordings of 5 minutes each, 10 minute washout, FIG. 3) is given as “neurons spontaneously present action potential bursts”.
